Assays:
sensitive (w.1) = experiment: greenhouse experiment, control of resistant weeds: sensitive biotype; assay type: in vivo; conditions: for weed control (%) w.1: AMATA Amaranthus tamariscinus, sensitive biotype; for activity on sensitive weeds (w.1): greenhouse, scale from 0 to 100
Excerpt: (§1) The culture containers used were plastic flowerpots containing loamy sand with approximately 3.0% of humus as the substrate. The seeds of the test plants were sown separately for each species and/or resistant biotype. For the pre-emergence treatment, the active ingredients, which had been suspended or emulsified in water, were applied directly after sowing by means of finely distributing nozzles. The containers were irrigated gently to promote germination and growth and subsequently covered with transparent plastic hoods until the plants had rooted. This cover caused uniform germination of the test plants, unless this had been impaired by the active ingredients. For the post-emergence treatment, the test plants were first grown to a height of 3 to 15 cm, depending on the plant habit, and only then treated with the active ingredients which had been suspended or emulsified in water. For this purpose, the test plants were either sown directly and grown in the same containers, or they were first grown separately as seedlings and transplanted into the test containers a few days prior to treatment. Depending on the species, the plants were kept at 10-25° C. or 20-35° C., respectively. The test period extended over 2 to 4 weeks. During this time, the plants were tended, and their response to the individual treatments was evaluated. The evaluation was carried out by using a scale from 0 to 100. 100 means no emergence of the plants or complete destruction of at least the above-ground parts, and 0 means no damage, or normal course of growth.
(§2) The plants used in the greenhouse experiments were of the following species and biotype: […]

[1] = test system: resistant weeds containing the ΔG210 mutation (w.2); experiment: greenhouse experiment, control of resistant weeds: resistant biotype; assay type: in vivo; conditions: for weed control (%) w.2: AMATA Amaranthus tamariscinus, PPO resistant biotype 1 (ΔG210 mutation); for activity on resistant weeds containing the ΔG210 mutation (w.2): greenhouse, scale from 0 to 100
Excerpt: as §1, §2

[2] = test system: resistant weeds containing the ΔG210 mutation (w.3); experiment: as above; assay type: in vivo; conditions: for weed control (%) w.3: AMATA Amaranthus tamariscinus, PPO resistant biotype 2 (ΔG210 mutation); for activity on resistant weeds containing the ΔG210 mutation (w.3): greenhouse, scale from 0 to 100
Excerpt: as §1, §2

CHEAL = experiment: greenhouse experiments, herbicidal activity, post-emergence treatment; assay type: in vivo, Chenopodium album; conditions: application rate 1 g/ha, scale 0 to 100
Excerpt: (§3) The culture containers used were plastic flowerpots containing loamy sand with approximately 3.0% of humus as the substrate. The seeds of the test plants were sown separately for each species.
(§4) For the pre-emergence treatment, the active ingredients, which had been suspended or emulsified in water, were applied directly after sowing by means of finely distributing nozzles. The containers were irrigated gently to promote germination and growth and subsequently covered with transparent plastic hoods until the plants had rooted. This cover caused uniform germination of the test plants, unless this had been impaired by the active ingredients. For the post-emergence treatment, the test plants were first grown to a height of 3 to 15 cm, depending on the plant habit, and only then treated with the active ingredients which had been suspended or emulsified in water. For this purpose, the test plants were either sown directly and grown in the same containers, or they were first grown separately as seedlings and transplanted into the test containers a few days prior to treatment.
(§5) Depending on the species, the plants were kept at 10-25° C. or 20-35° C., respectively. The test period extended over 2 to 4 weeks. During this time, the plants were tended, and their response to the individual treatments was evaluated.
(§6) Evaluation was carried out using a scale from 0 to 100. […]

ALOMY = experiment: as above; assay type: in vivo, Alopecurus myosuroides; conditions: application rate 8 g/ha, scale 0 to 100
Excerpt: as §3, §4, §5, §6

BRADC = experiment: as above; assay type: in vivo, Brachiaria decumbens; conditions: application rate 2 g/ha, scale 0 to 100
Excerpt: as §3, §4, §5, §6

LOLMU = experiment: as above; assay type: in vivo, Lolium multiflorum; conditions: application rate 8 g/ha, scale 0 to 100
Excerpt: as §3, §4, §5, §6

MATCH = experiment: as above; assay type: in vivo, Matricaria chamomilla; conditions: application rate 8 g/ha, scale 0 to 100
Excerpt: as §3, §4, §5, §6

ZEAMX = experiment: greenhouse experiments, post-emergence treatment, crop compatibility; assay type: in vivo, Zea mays; conditions: crop plants ZEAMX, application rate 2 g/ha, scale 0 to 100
Excerpt: as §3, §4, §5, §6

## C#CCOc1cc(-n2nc3n(c2=O)CCCC3)c(Cl)cc1Cl [azafenidin, reference compound]
Sensitive (w.1); use rate 2 g/ha
  weed control (%) w.1: 88%
Sensitive (w.1); use rate 4 g/ha
  weed control (%) w.1: 100%
[1]; use rate 2 g/ha
  weed control (%) w.2: 62%
[1]; use rate 4 g/ha
  weed control (%) w.2: 78%
[1]
  activity on resistant weeds containing the ΔG210 mutation (w.2): much weaker control of resistant in comparison to sensitive biotypes
[2]; use rate 2 g/ha
  weed control (%) w.3: 77%
[2]; use rate 4 g/ha
  weed control (%) w.3: 77%
[2]
  activity on resistant weeds containing the ΔG210 mutation (w.3): much weaker control of resistant in comparison to sensitive biotypes

## CCOC(=O)COc1ccccc1Oc1nc(-n2c(=O)cc(C(F)(F)F)n(C)c2=O)c(F)cc1Cl [compound 1, Ethyl 2-[2-[[3-chloro-5-fluoro-6-[3-methyl-2,6-dioxo-4-(trifluoromethyl)pyrimidin-1-yl]-2-pyridyl]oxy]phenoxy]acetate]
Sensitive (w.1); use rate 2 g/ha
  weed control (%) w.1: 88%
Sensitive (w.1); use rate 4 g/ha
  weed control (%) w.1: 100%
Sensitive (w.1)
  activity on sensitive weeds (w.1): very good activity
[1]; use rate 2 g/ha
  weed control (%) w.2: 87%
[1]; use rate 4 g/ha
  weed control (%) w.2: 100%
[1]
  activity on resistant weeds containing the ΔG210 mutation (w.2): very good activity
[2]; use rate 2 g/ha
  weed control (%) w.3: 98%
[2]; use rate 4 g/ha
  weed control (%) w.3: 100%
[2]
  activity on resistant weeds containing the ΔG210 mutation (w.3): very good activity

## COC(=O)C(OC)Oc1ccccc1Oc1nc(-n2c(=O)cc(C(F)(F)F)n(C)c2=O)c(F)cc1Cl (centres unmarked) [compound 2, Methyl 2-[2-[[3-chloro-5-fluoro-6-[3-methyl-2,6-dioxo-4-(trifluoromethyl)pyrimidin-1-yl]-2-pyridyl]oxy]phenoxy]-2-methoxy-acetate]
CHEAL
  damages: 90
ALOMY
  damages: 70
BRADC
  damages: 80
LOLMU
  damages: 70
MATCH
  damages: 70
ZEAMX
  damages: 25

## CCOC(=O)COc1ncccc1Oc1nc(-n2c(=O)cc(C(F)(F)F)n(C)c2=O)c(F)cc1Cl [compound 7, Ethyl 2-[[3-[[3-chloro-5-fluoro-6-[3-methyl-2,6-dioxo-4-(trifluoromethyl)pyrimidin-1-yl]-2-pyridyl]oxy]-2-pyridyl]oxy]acetate]
Sensitive (w.1); use rate 2 g/ha
  weed control (%) w.1: 93%
Sensitive (w.1); use rate 4 g/ha
  weed control (%) w.1: 100%
Sensitive (w.1)
  activity on sensitive weeds (w.1): very good activity
[1]; use rate 2 g/ha
  weed control (%) w.2: 100%
[1]; use rate 4 g/ha
  weed control (%) w.2: 100%
[1]
  activity on resistant weeds containing the ΔG210 mutation (w.2): very good activity
[2]; use rate 2 g/ha
  weed control (%) w.3: 100%
[2]; use rate 4 g/ha
  weed control (%) w.3: 100%
[2]
  activity on resistant weeds containing the ΔG210 mutation (w.3): very good activity

Reference: patent US11247980B2, “Herbicidal uracilpyrid” (BASF SE, priority 2017, dated 2022)
